Patent publication US8173606B2, “Sulfated oligosaccharide derivatives” (Progen Pharmaceuticals Limited, priority 2004, dated 2012)
Marks after values point to notes of the source that are not given here.

What was measured:
[1] = biological target: FGF-2 (Homo sapiens, UniProt P09038); test: SPR based solution affinity assay, growth factor binding (FGF-2); conditions: heparin-coated sensorchip, HBS-EP buffer containing 0.3 M NaCl, 25° C.; read-out: Kd bFGF
Experimental: (§1) Binding affinities of ligands for the growth factors FGF-1, FGF-2 and VEGF were measured using a surface plasmon resonance (SPR) based solution affinity assay. The principle of the assay is that heparin immobilised on a sensorchip surface distinguishes between free and bound growth factor in an equilibrated solution of the growth factor and a ligand. Upon injection of the solution, the free growth factor binds to the immobilised heparin, is detected as an increase in the SPR response and its concentration thus determined. A decrease in the free growth factor concentration as a function of the ligand concentration allows for the calculation of the dissociation constant, Kd. It is important to note that ligand binding to the growth factors can only be detected when the interaction involves the HS binding site, thus eliminating the chance of evaluating non-specific binding to other sites on the protein. A 1:1 stoichiometry has been assumed for all protein:ligand interactions.
(§2) For the testing of growth factor binding activity, heparin-coated sensorchips were used. Their preparation, via immobilisation of biotinylated BSA-heparin on a streptavidin-coated sensorchip, has been described.[5] Heparin has also been immobilised via aldehyde coupling using either adipic acid dihydrazide or 1,4-diaminobutane. […] Ligands binding to FGF-1 and VEGF were measured in HBS-EP buffer (10 mM HEPES, pH 7.4, 150 mM NaCl, 3.0 mM EDTA and 0.005% (v/v) polysorbate 20), while binding to FGF-2 was measured in HBS-EP buffer containing 0.3 M NaCl.[5] […] For each assay mixture, 50-200 μL of solution was injected at 5-40 μL/min and the relative binding response measured. […]
(§3) Sensorgram data were analysed using the BIAevaluation software (BIAcore). […]
(§4) [formula] and the binding equation[5] can be expressed as
(§5) The Kd values given are the values fit, using the binding equation, to a plot of [P] versus [L]total. Where Kd values were measured in duplicate, the values represent the average of the duplicate measurements. […]

[2] = biological target: FGF-1 (Homo sapiens, UniProt P05230); test: SPR based solution affinity assay, growth factor binding (FGF-1); conditions: heparin-coated sensorchip, HBS-EP buffer, 25° C.; read-out: Kd aFGF
Sequence of FGF-1 (P05230 whole entry, species assumed): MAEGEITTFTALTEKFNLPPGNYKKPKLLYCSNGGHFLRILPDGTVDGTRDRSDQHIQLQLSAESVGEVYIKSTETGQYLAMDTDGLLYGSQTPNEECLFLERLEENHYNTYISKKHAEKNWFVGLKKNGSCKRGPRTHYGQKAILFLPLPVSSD
Experimental: as §1, §2, §3, §4, §5

[3] = biological target: T1, heparanase (Homo sapiens, UniProt Q9Y251); test: Heparanase inhibition, Microcon ultrafiltration assay; format: biochemical; conditions: 3H labelled HS, pH 5.0, 22° C., 2.5 h
T1 sequence (Q9Y251 158-543 limits assumed): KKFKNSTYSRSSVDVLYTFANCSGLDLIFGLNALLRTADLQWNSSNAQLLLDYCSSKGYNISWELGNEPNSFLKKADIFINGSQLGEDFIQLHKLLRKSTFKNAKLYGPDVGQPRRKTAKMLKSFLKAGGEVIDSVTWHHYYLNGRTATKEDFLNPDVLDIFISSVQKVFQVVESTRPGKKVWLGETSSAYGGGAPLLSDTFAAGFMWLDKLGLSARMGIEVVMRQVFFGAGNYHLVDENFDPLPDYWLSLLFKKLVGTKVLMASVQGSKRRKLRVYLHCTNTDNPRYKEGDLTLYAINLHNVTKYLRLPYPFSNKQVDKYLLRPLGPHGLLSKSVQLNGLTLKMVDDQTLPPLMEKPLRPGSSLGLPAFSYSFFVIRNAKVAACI
T1 sequence (Q9Y251 36-109 limits assumed): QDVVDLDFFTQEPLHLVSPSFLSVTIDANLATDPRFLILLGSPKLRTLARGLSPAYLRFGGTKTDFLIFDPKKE
Experimental: The heparanase assays were performed using a Microcon ultrafiltration assay. The assays rely on the principle of physically separating heparan sulfate (HS) that has been digested by heparanase from native HS to determine heparanase activity. The assay uses ultrafiltration devices (Microcon YM-10) to separate the smaller heparanase-cleaved HS fragments from native HS.
A reaction was set up with a volume of 90 μL, • 40 mM acetate buffer (pH 5.0) • 0.1 mg/mL BSA • 90 ng heparanase • 2.5 μM ^3H labelled HS • various concentrations of inhibitors.
The reactions were set up with all components except the ^3H labelled HS and allowed to equilibrate for 10 min at 22° C. The assays were then initiated by adding the HS and immediately 20 μL was taken, mixed with 80 μL of 10 mM phosphate (pH 7.0) and the 100 μL transferred to a Microcon YM-10 concentrator which was then centrifuged at approximately 14000 g for 5 min. The solution that passed through the membrane (filtrate) was retained. This sample was considered the time=0 sample. The assays (now 70 μL in volume) were allowed to react at 22° C. for 2.5 h and then the filtration step was repeated for three aliquots of 20 μL from each assay.
The time=0 filtrate and the three 2.5 h filtrate samples were counted for ^3H. The difference between the time=0 and the averaged 2.5 h samples gave the amount of heparanase activity. All inhibition assays were run with a heparanase standard assay which was identical to the assay composition above except no inhibitor was present and the amount of heparanase inhibition in the other assays determined by comparison with this standard.

[4] = biological target: T2, VEGF (Homo sapiens, UniProt P15692); test: SPR based solution affinity assay, growth factor binding (VEGF); conditions: heparin-coated sensorchip, HBS-EP buffer, 25° C.
T2 sequence (P15692 27-191 isoform P15692-4): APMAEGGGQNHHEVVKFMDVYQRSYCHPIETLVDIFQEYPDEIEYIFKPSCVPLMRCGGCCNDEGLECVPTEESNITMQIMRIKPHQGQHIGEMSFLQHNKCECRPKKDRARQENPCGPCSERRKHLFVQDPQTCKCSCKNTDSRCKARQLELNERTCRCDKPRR
Experimental: as §1, §2, §3, §4, §5

[5] = Pharmacokinetic studies of 35S-labelled compounds after iv administration; conditions: rat; for Urinary Recovery: urine collected 0-48 h
Experimental: The polyol precursors for PG500, 501, 503, 504, 506 and PI-88 (2 mg of each) were desiccated under vacuum over P2O5 for 3 days. Into each vial was syringed 50 μL of a stock solution of 1.77 mg (2.0 mCi) of ^35SO3.pyridine complex and 2 mg SO3.Me3N in 300 μL of anhydrous DMF (Aldrich, redried over freshly ignited 3 A molecular sieves). A further 600 μL of anhydrous DMF was added to the SO3 vial and was distributed to each sample vial. The samples were heated to 60° for 66 hr. SO3.Me3N (14 mg in 300 μL anhydrous DMF) was added to each vessel and the resulting solutions were heated to 60° overnight. The vials were cooled to room temperature and stored at −80° C. awaiting purification.
Each sample was quenched by addition of Na2CO3 (sat. aqu. adjusted to pH 8-9), evaporated to dryness and subjected to SEC (Biogel P2, 2.6×90 cm, flow rate 30 mL/hr, 5 min/fraction). Fractions containing desired material were detected using a G-M counter and DMB test followed by CE.
Male Sprague Dawley rats (250-350 g) were used. The animals were allowed free access to food and water before and during the experiments, during which they were maintained unrestrained in metabolism cages. Rats were anaesthetized with isoflurane (Forthane®). A catheter was inserted in the external jugular vein via an incision in the neck, and was passed under the skin to a second incision in the skin of the back (midline vicinity of the scapulae). This was then exteriorized with the protection of a light metal spring. The incision was closed and the spring fixed to the skin with Michel sutures so that the rats had full range of movement. The animals were carefully monitored during recovery (1-4 h).
All doses were administered as a bolus intravenous injection of 2.5 mg/kg in a dose volume of 2 mL/kg. The total amount of radioactivity administered to each rat was 0.5-10 μCi. The dose level used in this study is 10-fold lower than the no-effect dose previously established for acute toxicity of PI-88. Blood samples (˜250 μL) were collected predose and at 5, 15, 30, 45 min, and 1, 1.5, 2, 4, 8, 12, 24, 36 and 48 h after dosing. The blood samples were immediately centrifuged and the plasma collected. At completion of the experiments, the animals were killed by a lethal overdose of IV pentobarbitone anaesthetic (Nembutal®). Urine was collected from each animal at intervals of 0-12 h, 12-24 h and 24-48 h after dosing. Cage washings (˜15 mL of deionised water) were also collected. At the end of the experiment, bladder contents were aspirated from each animal and added to the 24-48 h voidings. Feces were collected over the same time intervals as the urine.
Aliquots of plasma (100 μL), urine and cage washings (500 μL) were transferred directly to 6 mL polypropylene scintillation vials for determination of radioactivity. Feces collected during each time period (from one animal dosed with each compound) were weighed and homogenised in 4 volumes of deionised water using a mechanical homogeniser. Approximately 1 g (accurately weighed) of this slurry was transferred to a 20 mL glass scintillation vial, 2 mL of tissue solubiliser added and the vials capped and incubated at 60° C. for at least 24 h. Radioactivity was measured following mixing of samples with Packard Ultima Gold liquid scintillation counting cocktail (2.0 mL for plasma and dose, 5.0 mL for urine and cage washings, 10 mL for feces). Counting was conducted on a Packard Tr-Carb liquid scintillation counter. Any result less than three times the background was considered less than the lower limit of quantitation not used in calculations. Plasma, urine and cage washings were counted in triplicate within 5 days of collection and were not corrected for radiochemical decay. Feces were processed as a batch at the completion of the study and the counts from these samples were corrected for radiochemical decay.

[6] = system: herpes simplex virus (HSV-1) KOS321 strain; test: Antiviral assay, HSV-1 infectivity (plaque forming units); format: cell-based; conditions: African green monkey kidney cells; virus pre-incubated with compound 10 min
Excerpt: (§6) In panel A, the results are expressed as a percentage of the number of viral plaque forming units (PFU) formed in cells infected with the compound-treated virions relative to mock-treated controls. In panel B, the results are expressed as a percentage of the average area of 20 viral plaques formed in the continuous presence of compound relative to mock-treated control cells. Monolayer cultures of African green monkey kidney cells[35] and herpes simplex virus (HSV-1) KOS321 strain[36] were used throughout. The antiviral assays on the compounds were performed as described by Nyberg et al.[13] Briefly, the effects of the compounds on the infection of cells by exogenously added virus were tested by mixing serial fivefold dilutions of compound (at 0.032-20 μM) with approximately 200 plaque forming units of the virus. Following incubation of the virus and compound for 10 min at room temperature, the mixture was added to the cells and left on the cell monolayer for 2 h at 37° C. Subsequently, the inoculum was aspirated and replaced with an overlay medium of 1% methylcellulose solution in Eagle's minimum essential medium (EMEM). The viral plaques that developed after incubation of cells for 3 days at 37° C. were stained with 1% crystal violet solution and counted. The effects of the compounds on cell-to-cell spread of HSV-1 were tested by adding serial fivefold dilutions of compound (at 0.032-20 μM) in the serum-free overlay medium to cells after their infection with HSV-1. After incubation of the compound with the cells for 3 days at 37° C., the images of 20 plaques were captured and subjected to area determination using IM500 software (Leica).

[7] = system: herpes simplex virus (HSV-1) KOS321 strain; test: Antiviral assay, HSV-1 cell-to-cell spread (plaque area); format: cell-based; conditions: African green monkey kidney cells; compound in overlay medium after infection, 3 days
Excerpt: as §6

[8] = iv bolus 2.5 mg/kg, plasma radioactivity

Sequence of FGF-2 (P09038 143-288, species assumed): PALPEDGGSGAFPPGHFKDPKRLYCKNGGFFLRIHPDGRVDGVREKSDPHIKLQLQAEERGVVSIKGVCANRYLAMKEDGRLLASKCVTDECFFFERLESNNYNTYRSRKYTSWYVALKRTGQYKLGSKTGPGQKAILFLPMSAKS

Molecule	Cl* (apparent) ([5]; iv bolus 2.5 mg/kg)	Vd* (apparent) ([5]; iv bolus 2.5 mg/kg)	k* (apparent) ([5]; iv bolus 2.5 mg/kg)	C0 [5, 8]	Urinary Recovery ([5]; iv bolus 2.5 mg/kg)	IC50 [7] [µM]	also measured
[N-]=[N+]=NC1OC(COS(=O)(=O)O)C(OC2OC(COS(=O)(=O)O)C(OC3OC(COS(=O)(=O)O)C(OC4OC(COS(=O)(=O)O)C(OC5OC(COS(=O)(=O)O)C(OC6OC(COS(=O)(=O)O)C(OS(=O)(=O)O)C(OS(=O)(=O)O)C6OS(=O)(=O)O)C(OS(=O)(=O)O)C5OS(=O)(=O)O)C(OS(=O)(=O)O)C4OS(=O)(=O)O)C(OS(=O)(=O)O)C3OS(=O)(=O)O)C(OS(=O)(=O)O)C2OS(=O)(=O)O)C(OS(=O)(=O)O)C1OS(=O)(=O)O (stereo not drawn) [PG505]							Kd [1]: 0.137 ± 0.012 µM; Kd [2]: 0.00196 ± 0.0003 µM; IC50 [3]: 1.04 ± 0.147 µM; Kd [4]: 0.0048 ± 0.0004 µM
PI-88 [reference compound]							AUC0-12 h ([5]; in vivo, iv, 2.5 mg/kg): 9.6 ± 1.9 μg-eq/h · mL; C0 ([5]; in vivo, iv, 2.5 mg/kg): 17.7 ± 2.23 μg-eq/mL; Cl* (apparent) ([5]; in vivo, iv, 2.5 mg/kg): 250 ± 27.6 mL/h/kg; Vd* (apparent) ([5]; in vivo, iv, 2.5 mg/kg): 43.1 ± 1.9 mL; t1/2* (apparent) ([5]; in vivo, iv, 2.5 mg/kg): 49.8 ± 5.4 min
PEG2000 Polysulfate [PG506]	404 ± 59.5^ mL/h/kg	44.5 ± 4.5^ mL	1.17 ± 0.024^ h^−1	17.1 ± 1.8^ μg-eq/mL	79.1 ± 3.6^ % dose	7	IC50 [6]: 10 µM; AUC0-12 h, calculated over 0-8 h post dose interval only ([5]; iv bolus 2.5 mg/kg, 0-8 h post dose interval only): 6.2 ± 1.0^a μg-eq/h · mL
PEG5000 Polysulfate [PG504]	172 ± 11.8 mL/h/kg	24.9 ± 2.9 mL	0.247 ± 0.003 h⁻¹	30.5 ± 2.3 μg-eq/mL	66.5 ± 9.4 % dose	11	AUC0-12 h [5, 8]: 14.7 ± 1.2 μg-eq/h · mL
